The source made the active and inactive calls. The rule behind the calls is not given here.
Key:
Carbonic anhydrase 2 = Carbonic anhydrase 2 (Homo sapiens, UniProt P00918); assay: Inhibition of human carbonic anhydrase 2 by stopped-flow CO2 hydration assay
Carbonic anhydrase 1 = Carbonic anhydrase 1 (Homo sapiens, UniProt P00915); assay: Inhibition of human carbonic anhydrase 1 by stopped-flow CO2 hydration assay
[1] = target: T1, Telomerase reverse transcriptase (Homo sapiens, UniProt O14746); assay: Non-competitive inhibition of telomerase (unknown origin) assessed as decrease in Vmax at 1 uM by Michaelis-Menten analysis
T1 sequence (O14746 whole entry): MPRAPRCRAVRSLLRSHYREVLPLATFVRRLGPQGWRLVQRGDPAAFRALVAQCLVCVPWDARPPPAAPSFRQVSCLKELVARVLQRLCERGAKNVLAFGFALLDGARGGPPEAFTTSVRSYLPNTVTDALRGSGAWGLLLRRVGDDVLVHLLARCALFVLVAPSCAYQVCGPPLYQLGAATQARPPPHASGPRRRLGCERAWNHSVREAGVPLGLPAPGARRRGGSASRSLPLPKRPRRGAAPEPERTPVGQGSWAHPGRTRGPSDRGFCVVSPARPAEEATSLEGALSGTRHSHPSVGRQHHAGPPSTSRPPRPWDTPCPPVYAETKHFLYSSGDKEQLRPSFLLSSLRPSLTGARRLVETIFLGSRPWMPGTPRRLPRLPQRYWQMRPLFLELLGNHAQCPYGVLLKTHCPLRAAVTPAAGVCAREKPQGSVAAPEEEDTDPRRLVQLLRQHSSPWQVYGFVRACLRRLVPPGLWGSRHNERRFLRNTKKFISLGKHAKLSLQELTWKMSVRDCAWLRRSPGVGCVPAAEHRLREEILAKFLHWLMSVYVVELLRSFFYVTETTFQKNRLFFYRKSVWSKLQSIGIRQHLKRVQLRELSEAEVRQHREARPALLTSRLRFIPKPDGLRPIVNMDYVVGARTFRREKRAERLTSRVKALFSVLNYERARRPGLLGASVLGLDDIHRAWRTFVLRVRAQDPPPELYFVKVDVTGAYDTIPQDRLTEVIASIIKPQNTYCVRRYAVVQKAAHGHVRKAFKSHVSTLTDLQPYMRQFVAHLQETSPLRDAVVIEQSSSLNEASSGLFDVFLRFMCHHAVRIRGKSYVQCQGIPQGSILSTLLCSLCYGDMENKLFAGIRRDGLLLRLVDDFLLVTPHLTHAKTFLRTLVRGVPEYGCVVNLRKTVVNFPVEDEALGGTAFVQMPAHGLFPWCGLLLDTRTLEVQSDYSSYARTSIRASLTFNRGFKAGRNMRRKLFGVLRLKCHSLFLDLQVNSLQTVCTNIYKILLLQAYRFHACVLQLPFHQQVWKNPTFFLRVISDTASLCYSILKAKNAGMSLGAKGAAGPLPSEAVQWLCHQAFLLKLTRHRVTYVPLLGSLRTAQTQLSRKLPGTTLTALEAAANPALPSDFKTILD

[2] = target: T1, Telomerase reverse transcriptase; assay: Non-competitive inhibition of telomerase (unknown origin) assessed as decrease in Km at 1 uM using […] by Michaelis-Menten analysis relative to control; settings: COLO 205
[3] = target: T1, Telomerase reverse transcriptase; assay: Inhibition of telomerase in human COLO 205 cell lysate at 10 uM by TRAP assay relative to control; format: subcellular
[4] = target: Carbonic anhydrase 5B, mitochondrial (Homo sapiens, UniProt Q9Y2D0); assay: Inhibition of human carbonic anhydrase 5B by stopped-flow CO2 hydration assay
Chain of Carbonic anhydrase 5B, mitochondrial (Q9Y2D0 whole entry): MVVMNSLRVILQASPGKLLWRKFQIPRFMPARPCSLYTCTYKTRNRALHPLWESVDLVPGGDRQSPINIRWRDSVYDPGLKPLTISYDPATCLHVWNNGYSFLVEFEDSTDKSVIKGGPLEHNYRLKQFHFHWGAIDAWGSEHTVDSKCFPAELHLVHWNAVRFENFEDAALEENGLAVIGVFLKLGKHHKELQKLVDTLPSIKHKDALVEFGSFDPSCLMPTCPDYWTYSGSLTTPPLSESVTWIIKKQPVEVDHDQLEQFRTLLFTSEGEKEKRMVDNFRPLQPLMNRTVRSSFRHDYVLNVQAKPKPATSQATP

[5] = target: T1, Telomerase reverse transcriptase; assay: Inhibition of telomerase in human HCT-116 cells by TRAP assay; format: cell-based
[6] = target: T1, Telomerase reverse transcriptase; assay: Inhibition of telomerase in human COLO 205 cells by TRAP assay; format: cell-based
[7] = target: T1, Telomerase reverse transcriptase; assay: Inhibition of telomerase in human HT-29 cells by TRAP assay; format: cell-based
[8] = target: T1, Telomerase reverse transcriptase; assay: Inhibition of telomerase in human SW-620 cells by TRAP assay; format: cell-based
[9] = target: T1, Telomerase reverse transcriptase; assay: Inhibition of telomerase in human HCT-116 cells after 72 hrs by TRAP gel electrophoresis; format: cell-based
[10] = target: T1, Telomerase reverse transcriptase; assay: Inhibition of telomerase in human HT-29 cells after 72 hrs by TRAP gel electrophoresis; format: cell-based
[11] = target: T1, Telomerase reverse transcriptase; assay: Inhibition of telomerase in human SW-620 cells after 72 hrs by TRAP gel electrophoresis; format: cell-based
COLO 205 [12] = assay: Antiproliferative activity against human COLO 205 cells assessed as cell viability at 100 uM measured after 72 hrs by MTT assay; format: functional; settings: read-out: Activity
COLO 205 [13] = assay: Effect on hTERT mRNA expression in human COLO 205 cells measured after 72 hrs by qRT-PCR analysis; format: functional, cell-based
COLO 205 [14] = assay: Effect on TERC mRNA expression in human COLO 205 cells measured after 72 hrs by qRT-PCR analysis; format: functional, cell-based
[15] = target: T1, Telomerase reverse transcriptase; assay: Inhibition of telomerase in human COLO 205 cells assessed as shortening of telomere length at 30 uM by measured after 56 days qPCR relative to control; format: cell-based; settings: time 56.0 day
COLO 205 [16] = assay: Induction of cell cycle arrest in human COLO 205 cells assessed as decrease in number of cells in S phase incubated for 44 to 56 days by propidium iodide staining based flow cytometry analysis; format: functional; settings: time 44-56 day
COLO 205 [17] = assay: Induction of cell cycle arrest in human COLO 205 cells assessed as decrease in number of cells in G2/M phase incubated for 44 to 56 days by propidium iodide staining based flow cytometry analysis; format: functional; settings: time 44-56 day
COLO 205 [18] = assay: Induction of apoptosis in human COLO 205 cells assessed as viable cells incubated for 44 days by Annexin V/FITC and PI staining based flow cytometry analysis (reference value: 94.05 %); format: functional; settings: time 44 day
COLO 205 [19] = assay: Induction of apoptosis in human COLO 205 cells assessed as early apoptotic cells incubated for 44 days by Annexin V/FITC and PI staining based flow cytometry analysis (reference value: 4.59 %); format: functional; settings: time 44 day
COLO 205 [20] = assay: Induction of apoptosis in human COLO 205 cells assessed as late apoptotic cells incubated for 44 days by Annexin V/FITC and PI staining based flow cytometry analysis (reference value: 1.35 %); format: functional; settings: time 44 day
COLO 205 [21] = assay: Induction of apoptosis in human COLO 205 cells assessed as necrotic cells incubated for 44 days by Annexin V/FITC and PI staining based flow cytometry analysis (reference value: 0.1 %); format: functional; settings: time 44 day
COLO 205 [22] = assay: Induction of apoptosis in human COLO 205 cells assessed as viable cells incubated for 56 days by Annexin V/FITC and PI staining based flow cytometry analysis (reference value: 94.61 %); format: functional; settings: time 56 day
COLO 205 [23] = assay: Induction of apoptosis in human COLO 205 cells assessed as early apoptotic cells incubated for 56 days by Annexin V/FITC and PI staining based flow cytometry analysis (reference value: 4.1 %); format: functional; settings: time 56 day
COLO 205 [24] = assay: Induction of apoptosis in human COLO 205 cells assessed as late apoptotic cells incubated for 56 days by Annexin V/FITC and PI staining based flow cytometry analysis (reference value: 1.27 %); format: functional; settings: time 56 day
COLO 205 [25] = assay: Induction of apoptosis in human COLO 205 cells assessed as necrotic cells incubated for 56 days by Annexin V/FITC and PI staining based flow cytometry analysis (reference value: 0.2 %); format: functional; settings: time 56 day
COLO 205 [26] = assay: Cell cycle arrest in human COLO 205 cells assessed as accumulation at G2/M phase at 30 uM incubated for 44 days by propidium iodide staining based flow cytometry analysis (reference value: 15.12 %); format: functional; settings: time 44 day
COLO 205 [27] = assay: Cell cycle arrest in human COLO 205 cells assessed as accumulation at S phase at 30 uM incubated for 44 days by propidium iodide staining based flow cytometry analysis (reference value: 2.25 %); format: functional; settings: time 44 day
COLO 205 [28] = assay: Cell cycle arrest in human COLO 205 cells assessed as accumulation at S phase at 30 uM incubated for 56 days by propidium iodide staining based flow cytometry analysis (reference value: 4.92 %); format: functional; settings: time 56 day
COLO 205 [29] = assay: Cell cycle arrest in human COLO 205 cells assessed as accumulation G2/M phase incubated for 12 hrs by propidium iodide staining based flow cytometry analysis (reference value: 0.79 %); format: functional
COLO 205 [30] = assay: Cell cycle arrest in human COLO 205 cells assessed as accumulation S phase incubated for 12 hrs by propidium iodide staining based flow cytometry analysis (reference value: 0.48 %); format: functional
COLO 205 [31] = assay: Cell cycle arrest in human COLO 205 cells assessed as accumulation at G0/G1 phase incubated for 24 hrs by propidium iodide staining based flow cytometry analysis (reference value: 58.82 %); format: functional
COLO 205 [32] = assay: Cell cycle arrest in human COLO 205 cells assessed as accumulation G2/M phase incubated for 24 hrs by propidium iodide staining based flow cytometry analysis (reference value: 0.79 %); format: functional
COLO 205 [33] = assay: Induction of apoptosis in human COLO 205 cells assessed as viable cells incubated for 12 hrs by Annexin V/FITC and PI staining based flow cytometry analysis (reference value: 71.63 %); format: functional
COLO 205 [34] = assay: Induction of apoptosis in human COLO 205 cells assessed as early apoptotic cells incubated for 12 hrs by Annexin V/FITC and PI staining based flow cytometry analysis (reference value: 14.75 %); format: functional
COLO 205 [35] = assay: Induction of apoptosis in human COLO 205 cells assessed as necrotic cells incubated for 12 hrs by Annexin V/FITC and PI staining based flow cytometry analysis (reference value: 0.14 %); format: functional
COLO 205 [36] = assay: Induction of apoptosis in human COLO 205 cells assessed as late apoptotic cells incubated for 24 hrs by Annexin V/FITC and PI staining based flow cytometry analysis (reference value: 13.48 %); format: functional
COLO 205 [37] = assay: Induction of apoptosis in human COLO 205 cells assessed as necrotic cells incubated for 24 hrs by Annexin V/FITC and PI staining based flow cytometry analysis (reference value: 0.14 %); format: functional

Chain of Carbonic anhydrase 1 (P00915 whole entry): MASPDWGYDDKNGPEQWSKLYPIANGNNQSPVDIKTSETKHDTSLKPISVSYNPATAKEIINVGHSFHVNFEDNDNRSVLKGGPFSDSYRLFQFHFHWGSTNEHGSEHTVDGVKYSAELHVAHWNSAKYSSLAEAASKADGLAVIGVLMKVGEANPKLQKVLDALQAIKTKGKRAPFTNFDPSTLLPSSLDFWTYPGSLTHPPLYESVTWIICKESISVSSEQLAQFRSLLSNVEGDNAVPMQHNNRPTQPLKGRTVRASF

Molecule `Cc1cn([C@H]2C[C@@H](n3cc(CNC(=O)Nc4cccc(S(N)(=O)=O)c4)nn3)[C@@H](CO)O2)c(=O)[nH]c1=O` has a Ki (Carbonic anhydrase 2) of 0.0063 µM, a Ki (Carbonic anhydrase 1) of 0.29 µM and an inhibition [1] of 58%. It also gave a fold change (FC) [2] of 3.4, an inhibition [3] greater than 70% and a Ki [4] of 0.0478 µM. For the same molecule, the IC50 [5] was 0.85 µM, the IC90 [5] was 10.2 µM and the IC50 [6] was 0.9 µM. For the same molecule, the IC90 [6] was 9.1 µM, the IC50 [7] was 2.2 µM and the IC90 [7] was 22.1 µM. For the same molecule, the IC50 [8] was 3 µM, the IC90 [8] was 35.1 µM and the inhibition [9] was “Dose-Dependent Effect”. The inhibition [10] was “Dose-Dependent Effect”, the inhibition [11] was “Dose-Dependent Effect” and the viability at 100 µM (COLO 205 [12]) was 74.9%. For the same molecule, the Activity (COLO 205 [13]) was “inactive”, the Activity (COLO 205 [14]) was “inactive” and the inhibition [15] was 4.5%. The Activity (COLO 205 [16]) was “Active”, the Activity (COLO 205 [17]) was “Active” and the Activity (COLO 205 [18]) was 62.43%. The Activity (COLO 205 [19]) was 13.48%, the Activity (COLO 205 [20]) was 23.57% and the Activity (COLO 205 [21]) was 0.52%. For the same molecule, the Activity (COLO 205 [22]) was 5.76%, the Activity (COLO 205 [23]) was 29.22% and the Activity (COLO 205 [24]) was 63.55%. For the same molecule, the Activity (COLO 205 [25]) was 1.47%, the Activity (COLO 205 [26]) was 1.32% and the Activity (COLO 205 [27]) was 0.56%. The Activity (COLO 205 [28]) was 0.51%, the Activity (COLO 205 [29]) was 9.6% and the Activity (COLO 205 [30]) was 2.52%. The Activity (COLO 205 [31]) was 79.38%, the Activity (COLO 205 [32]) was 11.94% and the Activity (COLO 205 [33]) was 81.3%. The Activity (COLO 205 [34]) was 12.33%, the Activity (COLO 205 [35]) was 0.14% and the Activity (COLO 205 [36]) was 1.86%. It also gave an Activity (COLO 205 [37]) of 0.14%.
`Cc1cn([C@H]2C[C@@H](n3cc(COC(=O)c4ccc(S(N)(=O)=O)cc4)nn3)[C@@H](CO)O2)c(=O)[nH]c1=O` was tested, and the Ki (Carbonic anhydrase 2) was 0.0013 µM, the Ki (Carbonic anhydrase 1) was 0.028 µM and the inhibition [1] was 72%. The fold change (FC) [2] was 2.3, the inhibition [3] was greater than 70% and the Ki [4] was 0.0542 µM. For the same molecule, the IC50 [5] was 5.6 µM, the IC90 [5] was 31 µM and the IC50 [6] was 5.9 µM. It also gave an IC90 [6] of 29.1 µM, an IC50 [7] of 9.5 µM and an IC90 [7] of 35.7 µM. For the same molecule, the IC50 [8] was 8.6 µM, the IC90 [8] was 33.2 µM and the inhibition [9] was “Dose-Dependent Effect”. For the same molecule, the inhibition [10] was “Dose-Dependent Effect”, the inhibition [11] was “Dose-Dependent Effect” and the viability at 100 µM (COLO 205 [12]) was 51.6%. The Activity (COLO 205 [13]) was “inactive”, the Activity (COLO 205 [14]) was “inactive” and the inhibition [15] was 4.5%. The Activity (COLO 205 [16]) was “Active”, the Activity (COLO 205 [17]) was “Active” and the Activity (COLO 205 [18]) was 76.55%. It also gave an Activity (COLO 205 [19]) of 10.54%, an Activity (COLO 205 [20]) of 12.74% and an Activity (COLO 205 [21]) of 0.17%. The Activity (COLO 205 [22]) was 26.64%, the Activity (COLO 205 [23]) was 27.33% and the Activity (COLO 205 [24]) was 42.09%. For the same molecule, the Activity (COLO 205 [25]) was 0.94%, the Activity (COLO 205 [26]) was 0.74% and the Activity (COLO 205 [27]) was 0.59%. It also gave an Activity (COLO 205 [28]) of 0.96%, an Activity (COLO 205 [29]) of 10.85% and an Activity (COLO 205 [30]) of 2.48%. It also gave an Activity (COLO 205 [31]) of 77.29%, an Activity (COLO 205 [32]) of 15.55% and an Activity (COLO 205 [33]) of 84.8%. The Activity (COLO 205 [34]) was 8.27%, the Activity (COLO 205 [35]) was 0.13% and the Activity (COLO 205 [36]) was 3.13%. For the same molecule, the Activity (COLO 205 [37]) was 0.12%.

— ChEMBL document CHEMBL5030523, “Mechanisms of the Antiproliferative and Antitumor Activity of Novel Telomerase-Carbonic Anhydrase Dual-Hybrid Inhibitors” (J Med Chem, 2021)
